Experiments:
Assay in all cases: cells
Settings in all cases: Homo sapiens
MS-1 = assay type: functional, cell-based
Description: SANGER: Inhibition of human MS-1 cell growth in a cell viability assay.

NCI-H1299 = assay type: functional, cell-based
Description: SANGER: Inhibition of human NCI-H1299 cell growth in a cell viability assay.

GB-1 = assay type: functional, cell-based
Description: SANGER: Inhibition of human GB-1 cell growth in a cell viability assay.

NCI-H1770 = assay type: functional, cell-based
Description: SANGER: Inhibition of human NCI-H1770 cell growth in a cell viability assay.

COLO-684 = assay type: functional, cell-based
Description: SANGER: Inhibition of human COLO-684 cell growth in a cell viability assay.

LAN-6 = assay type: functional, cell-based
Description: SANGER: Inhibition of human LAN-6 cell growth in a cell viability assay.

MHH-PREB-1 = assay type: functional, cell-based
Description: SANGER: Inhibition of human MHH-PREB-1 cell growth in a cell viability assay.

RPMI-8866 = assay type: functional, cell-based
Description: SANGER: Inhibition of human RPMI-8866 cell growth in a cell viability assay.

HD-MY-Z = assay type: functional, cell-based
Description: SANGER: Inhibition of human HD-MY-Z cell growth in a cell viability assay.

DB = assay type: functional, cell-based
Description: SANGER: Inhibition of human DB cell growth in a cell viability assay.

RCC10RGB = assay type: functional, cell-based
Description: SANGER: Inhibition of human RCC10RGB cell growth in a cell viability assay.

EOL1 = assay type: functional, cell-based
Description: SANGER: Inhibition of human EoL-1-cell cell growth in a cell viability assay.

A498 = assay type: functional, cell-based
Description: SANGER: Inhibition of human A498 cell growth in a cell viability assay.

AM-38 = assay type: functional, cell-based
Description: SANGER: Inhibition of human AM-38 cell growth in a cell viability assay.

SNU1 = assay type: functional, cell-based
Description: SANGER: Inhibition of human NCI-SNU-1 cell growth in a cell viability assay.

ECC4 = assay type: functional, cell-based
Description: SANGER: Inhibition of human ECC4 cell growth in a cell viability assay.

HC-1 = assay type: functional, cell-based
Description: SANGER: Inhibition of human HC-1 cell growth in a cell viability assay.

TE-12 = assay type: functional, cell-based
Description: SANGER: Inhibition of human TE-12 cell growth in a cell viability assay.

Calu-6 = assay type: functional, cell-based
Description: SANGER: Inhibition of human Calu-6 cell growth in a cell viability assay.

ES1 = assay type: functional, cell-based
Description: SANGER: Inhibition of human ES1 cell growth in a cell viability assay.

CPC-N = assay type: functional, cell-based
Description: SANGER: Inhibition of human CPC-N cell growth in a cell viability assay.

KM12 = assay type: functional, cell-based
Description: SANGER: Inhibition of human KM12 cell growth in a cell viability assay.

SW 962 = assay type: functional, cell-based
Description: SANGER: Inhibition of human SW962 cell growth in a cell viability assay.

OCI-AML2 = assay type: functional, cell-based
Description: SANGER: Inhibition of human OCI-AML2 cell growth in a cell viability assay.

SF-126 = assay type: functional, cell-based
Description: SANGER: Inhibition of human SF126 cell growth in a cell viability assay.

IST-SL1 = assay type: functional, cell-based
Description: SANGER: Inhibition of human IST-SL1 cell growth in a cell viability assay.

NCI-H1155 = assay type: functional, cell-based
Description: SANGER: Inhibition of human NCI-H1155 cell growth in a cell viability assay.

LB831-BLC = assay type: functional, cell-based
Description: SANGER: Inhibition of human LB831-BLC cell growth in a cell viability assay.

MN-60 = assay type: functional, cell-based
Description: SANGER: Inhibition of human MN-60 cell growth in a cell viability assay.

SF-268 = assay type: functional, cell-based
Description: SANGER: Inhibition of human SF268 cell growth in a cell viability assay.

697 = assay type: functional, cell-based
Description: SANGER: Inhibition of human 697 cell growth in a cell viability assay.

no-11 = assay type: functional, cell-based
Description: SANGER: Inhibition of human no-11 cell growth in a cell viability assay.

SNB-75 = assay type: functional, cell-based
Description: SANGER: Inhibition of human SNB75 cell growth in a cell viability assay.

RS4-11 = assay type: functional, cell-based
Description: SANGER: Inhibition of human RS4-11 cell growth in a cell viability assay.

NCI-H1838 = assay type: functional, cell-based
Description: SANGER: Inhibition of human NCI-H1838 cell growth in a cell viability assay.

HuTu80 = assay type: functional, cell-based, HUTU-80
Description: SANGER: Inhibition of human HUTU-80 cell growth in a cell viability assay.

RPMI-8226 = assay type: functional, cell-based
Description: SANGER: Inhibition of human RPMI-8226 cell growth in a cell viability assay.

NCI-H1355 = assay type: functional, cell-based
Description: SANGER: Inhibition of human NCI-H1355 cell growth in a cell viability assay.

CP66-MEL = assay type: functional, cell-based
Description: SANGER: Inhibition of human CP66-MEL cell growth in a cell viability assay.

NB13 = assay type: functional, cell-based
Description: SANGER: Inhibition of human NB13 cell growth in a cell viability assay.

LB2518-MEL = assay type: functional, cell-based
Description: SANGER: Inhibition of human LB2518-MEL cell growth in a cell viability assay.

SK-LMS-1 = assay type: functional, cell-based
Description: SANGER: Inhibition of human SK-LMS-1 cell growth in a cell viability assay.

GAK = assay type: functional, cell-based
Description: SANGER: Inhibition of human GAK cell growth in a cell viability assay.

ES6 = assay type: functional, cell-based
Description: SANGER: Inhibition of human ES6 cell growth in a cell viability assay.

MV4-11 = assay type: functional, cell-based, MV-4-11
Description: SANGER: Inhibition of human MV-4-11 cell growth in a cell viability assay.

KM-H2 = assay type: functional, cell-based
Description: SANGER: Inhibition of human KM-H2 cell growth in a cell viability assay.

C8166 = assay type: functional, cell-based
Description: SANGER: Inhibition of human C8166 cell growth in a cell viability assay.

HH = assay type: functional, cell-based
Description: SANGER: Inhibition of human HH cell growth in a cell viability assay.

QIMR-WIL = assay type: functional, cell-based
Description: SANGER: Inhibition of human QIMR-WIL cell growth in a cell viability assay.

ML-2 = assay type: functional, cell-based
Description: SANGER: Inhibition of human ML-2 cell growth in a cell viability assay.

KINGS-1 = assay type: functional, cell-based
Description: SANGER: Inhibition of human KINGS-1 cell growth in a cell viability assay.

OCUB-M = assay type: functional, cell-based
Description: SANGER: Inhibition of human OCUB-M cell growth in a cell viability assay.

JAR = assay type: functional, cell-based
Description: SANGER: Inhibition of human JAR cell growth in a cell viability assay.

LS-1034 = assay type: functional, cell-based
Description: SANGER: Inhibition of human LS-1034 cell growth in a cell viability assay.

A704 = assay type: functional, cell-based
Description: SANGER: Inhibition of human A704 cell growth in a cell viability assay.

SW982 = assay type: functional, cell-based
Description: SANGER: Inhibition of human SW982 cell growth in a cell viability assay.

## CCn1c(-c2nonc2N)nc2cnc(Oc3cccc(NC(=O)c4ccc(OCCN5CCOCC5)cc4)c3)cc21 [GSK-269962A]
MS-1
  IC50: > 2500 nM
NCI-H1299
  IC50: > 2500 nM
GB-1
  IC50: > 2500 nM
NCI-H1770
  IC50: > 2500 nM
COLO-684
  IC50: > 2500 nM
LAN-6
  IC50: > 2500 nM
MHH-PREB-1
  IC50: > 2500 nM
RPMI-8866
  IC50: > 2500 nM
HD-MY-Z
  IC50: > 2500 nM
DB
  IC50: > 2500 nM
RCC10RGB
  IC50: > 2500 nM
EOL1
  IC50: > 2500 nM
A498
  IC50: > 2500 nM
AM-38
  IC50: > 2500 nM
SNU1
  IC50: > 2500 nM
ECC4
  IC50: > 2500 nM
HC-1
  IC50: > 2500 nM
TE-12
  IC50: > 2500 nM
Calu-6
  IC50: > 2500 nM
ES1
  IC50: > 2500 nM
CPC-N
  IC50: > 2500 nM
KM12
  IC50: > 2500 nM
SW 962
  IC50: > 2500 nM
OCI-AML2
  IC50: > 2500 nM
SF-126
  IC50: > 2500 nM
IST-SL1
  IC50: 2170 nM
NCI-H1155
  IC50: > 2500 nM
LB831-BLC
  IC50: > 2500 nM
MN-60
  IC50: > 2500 nM
SF-268
  IC50: > 2500 nM
697
  IC50: 299 nM
no-11
  IC50: > 2500 nM
SNB-75
  IC50: > 2500 nM
RS4-11
  IC50: > 2500 nM
NCI-H1838
  IC50: > 2500 nM
HuTu80
  IC50: > 2500 nM
RPMI-8226
  IC50: > 2500 nM
NCI-H1355
  IC50: > 2500 nM
CP66-MEL
  IC50: > 2500 nM
NB13
  IC50: 2310 nM
LB2518-MEL
  IC50: 1710 nM
SK-LMS-1
  IC50: > 2500 nM
GAK
  IC50: > 2500 nM
ES6
  IC50: 247 nM
MV4-11
  IC50: 139 nM
KM-H2
  IC50: > 2500 nM
C8166
  IC50: > 2500 nM
HH
  IC50: > 2500 nM
QIMR-WIL
  IC50: 490 nM
ML-2
  IC50: > 2500 nM
KINGS-1
  IC50: > 2500 nM
OCUB-M
  IC50: > 2500 nM
JAR
  IC50: > 2500 nM
LS-1034
  IC50: > 2500 nM

## Cc1ccc(NC(=O)c2cccc(C(C)(C)C#N)c2)cc1Nc1ccc2ncn(C)c(=O)c2c1
MS-1
  IC50: > 4000 nM
NCI-H1299
  IC50: > 4000 nM
GB-1
  IC50: > 4000 nM
NCI-H1770
  IC50: > 4000 nM
COLO-684
  IC50: > 4000 nM
LAN-6
  IC50: 682 nM
MHH-PREB-1
  IC50: > 4000 nM
RPMI-8866
  IC50: > 4000 nM
HD-MY-Z
  IC50: 2940 nM
DB
  IC50: > 4000 nM
RCC10RGB
  IC50: > 4000 nM
EOL1
  IC50: > 4000 nM
AM-38
  IC50: > 4000 nM
SNU1
  IC50: 448 nM
ECC4
  IC50: > 4000 nM
HC-1
  IC50: > 4000 nM
TE-12
  IC50: 1310 nM
Calu-6
  IC50: 51.5 nM
ES1
  IC50: > 4000 nM
CPC-N
  IC50: > 4000 nM
KM12
  IC50: 2080 nM
SW 962
  IC50: > 4000 nM
OCI-AML2
  IC50: 17 nM
SF-126
  IC50: > 4000 nM
IST-SL1
  IC50: > 4000 nM
NCI-H1155
  IC50: > 4000 nM
LB831-BLC
  IC50: > 4000 nM
MN-60
  IC50: > 4000 nM
SF-268
  IC50: > 4000 nM
697
  IC50: 364 nM
no-11
  IC50: > 4000 nM
SNB-75
  IC50: > 4000 nM
RS4-11
  IC50: > 4000 nM
NCI-H1838
  IC50: > 4000 nM
HuTu80
  IC50: 983 nM
RPMI-8226
  IC50: 2470 nM
NCI-H1355
  IC50: > 4000 nM
CP66-MEL
  IC50: 132 nM
NB13
  IC50: > 4000 nM
LB2518-MEL
  IC50: 4.76 nM
SK-LMS-1
  IC50: > 4000 nM
ES6
  IC50: > 4000 nM
MV4-11
  IC50: 1420 nM
KM-H2
  IC50: > 4000 nM
C8166
  IC50: > 4000 nM
HH
  IC50: > 4000 nM
QIMR-WIL
  IC50: 3230 nM
ML-2
  IC50: 369 nM
KINGS-1
  IC50: > 4000 nM
OCUB-M
  IC50: > 4000 nM
JAR
  IC50: > 4000 nM
LS-1034
  IC50: > 4000 nM

## Cc1n[nH]c2ccc(-c3cncc(OC[C@@H](N)Cc4c[nH]c5ccccc45)c3)cc12 [A-443654]
MS-1
  IC50: > 1020 nM
GB-1
  IC50: 199 nM
NCI-H1770
  IC50: > 1020 nM
COLO-684
  IC50: 79.5 nM
LAN-6
  IC50: 886 nM
MHH-PREB-1
  IC50: 271 nM
RPMI-8866
  IC50: > 1020 nM
HD-MY-Z
  IC50: > 1020 nM
DB
  IC50: 375 nM
RCC10RGB
  IC50: > 1020 nM
EOL1
  IC50: 165 nM
A498
  IC50: > 1020 nM
AM-38
  IC50: > 1020 nM
SNU1
  IC50: 400 nM
ECC4
  IC50: > 1020 nM
HC-1
  IC50: 208 nM
TE-12
  IC50: 194 nM
Calu-6
  IC50: 137 nM
A704
  IC50: 261 nM
ES1
  IC50: 739 nM
CPC-N
  IC50: 304 nM
KM12
  IC50: 141 nM
SW 962
  IC50: 255 nM
OCI-AML2
  IC50: 210 nM
SF-126
  IC50: 311 nM
IST-SL1
  IC50: 434 nM
NCI-H1155
  IC50: 564 nM
LB831-BLC
  IC50: 194 nM
MN-60
  IC50: 487 nM
SF-268
  IC50: > 1020 nM
697
  IC50: 32.8 nM
no-11
  IC50: 130 nM
SNB-75
  IC50: 116 nM
RS4-11
  IC50: 168 nM
NCI-H1838
  IC50: > 1020 nM
HuTu80
  IC50: 114 nM
RPMI-8226
  IC50: 670 nM
NCI-H1355
  IC50: 113 nM
CP66-MEL
  IC50: 459 nM
NB13
  IC50: 332 nM
LB2518-MEL
  IC50: 397 nM
SK-LMS-1
  IC50: 276 nM
GAK
  IC50: > 1020 nM
SW982
  IC50: 166 nM
ES6
  IC50: 91.5 nM
MV4-11
  IC50: 57.7 nM
KM-H2
  IC50: > 1020 nM
C8166
  IC50: > 1020 nM
HH
  IC50: 223 nM
QIMR-WIL
  IC50: 256 nM
ML-2
  IC50: 192 nM
KINGS-1
  IC50: 292 nM
OCUB-M
  IC50: 25.7 nM
JAR
  IC50: 156 nM
LS-1034
  IC50: 630 nM

— ChEMBL document CHEMBL1201861, “Genomics of Drug Sensitity in Cancer screening data, Wellcome Trust Sanger Institute”
